Measurements: US20120165384A1, “INHIBITION OF HISTONE ACETYLTRANSFERASES BY CTK7A AND METHODS THEREOF” (JAWAHARLAL NEHRU CENTRE FOR ADVANCED SCIENTIFIC RESEARCH, priority 2009, published 2012)
One block for each molecule: values may come before it.

Experiments:
[1] = test system: NPM1 and GAPDH acetylation in KB cells; assay: NPM1 and GAPDH acetylation in KB cells (anti-acetyl lysine immunoprecipitation, western blotting); assay type: cell-based
Description: (§1) KB cells were maintained in Dullbecco's modified Eagle medium (DMEM) with 10% fetal bovine serum (FBS) at 37° C. with a 5% CO2 atmosphere in a humidified incubator. For IFNγ and GSNO treatment, KB cells were incubated in the presence of IFNγ 10 ng ml^−1 for an additional 16 h and 24 h respectively. Immunofluorescent staining of cells for confocal microscopy was carried out as described previously^30. CTK7A treatment was done for 24 h followed by acid extraction of histone and immunoblotting as per standard protocol^31.
Whole cell extract were prepared using RIPA buffer as mentioned above. The pre-blocked protein-G sepharose-bound antibody (4 μg) was incubated with 500 μg whole cell lysate overnight at 4° C. After extensive washes, bead-bound protein were analysed by western blotting with indicated antibodies. For HDAC inhibitors treatment, 5 mM sodium butyrate, 5 mM nicotiamide and 100 ng ml^−1 TSA were added 10 h before cells were harvest^36.

Solubility test in water = assay type: physicochemical
Description: To a solution of curcumin in methanol (10 mg, 0.027 Mmol) […]. After incubation for 24 h, the solvent was evaporated in vacuum. The residue […] was purified with repeated recrystallization and filtration method using TLC (CHCl3/MeOH=4:1; Rf=0.5). This gave CTK7 as a dark orange powder (7.18 mg, 55%) which was analyzed by H^1 NMR, Melting point test, Solubility test and ESI-MS.
To a solution of CTK7 in methanol (50 mg, 0.1031 mmol), (10 ml) of Sodium ethoxide was added ([…], 0.1175 mmol) and the reaction mixture was stirred at room temperature for 90 minutes. The solvent was evaporated in vacuum and the residue was washed with hexane, diethyl ether and ethyl acetate. Product was confirmed through H^1 NMR, Solubility test, melting point.

[2] = test system: Histone H3K14 acetylation in KB cells; assay: H3K14 acetylation in GSNO treated KB cells (western blotting); assay type: cell-based; settings: concentration dependent
Description: as §1, with “protocol^31. For whole cell extract preparation RIPA buffer (Tris-HCl 50 mM, pH 7.4 NP-40 1%, Na-deoxycholate 0.25%, NaCl 150 mM, EDTA 1 mM, Phenylmethylsulfonyl fluoride (PMSF), 1 mM Na3VO4, 1 mM NaF and protease inhibitor cocktail) was used.” for “protocol^31.”

[3] = test system: NPM1 and GAPDH expression in KB cells; assay: NPM1 and GAPDH expression in treated KB cells; assay type: cell-based; settings: 24 h
Description: as §1, with “protocol^31. For whole cell extract preparation RIPA buffer (Tris-HCl 50 mM, pH 7.4 NP-40 1%, Na-deoxycholate 0.25%, NaCl 150 mM, EDTA 1 mM, Phenylmethylsulfonyl fluoride (PMSF), 1 mM Na3VO4, 1 mM NaF and protease inhibitor cocktail) was used.” for “protocol^31.”

human melanocytes = settings: earlier report, cited from earlier work
PCAF = target: T1, PCAF (Homo sapiens, UniProt Q92831); assay: HAT assay with recombinant PCAF; assay type: biochemical
T1 construct: Recombinant baculovirus expressing full-length FLAG-tagged CARM1,CBP and PCAF; FLAG; made in house; host or cells: baculovirus-infected Sf21 cells
Description: (§2) Recombinant baculovirus expressing full-length FLAG-tagged CARM1,CBP and PCAF were purified by immunoaffinity chromatography using M2-agarose beads followed by elution with FLAG peptide. Baculovirus-expressed full-length hexahistidine-tagged p300, and G9a were purified using Ni-NTA affinity chromatography as described previously^30.
(§3) HAT gel fluorography/autoradiography assays were performed as previously reported^30. Kinetic analysis of p300 HAT inhibition was performed as reported earlier^31 in the presence of (0, 30 and 50 μM) CTK7A. The obtained values were plotted as a lineweaver burk plot using Graphpad Prism software. For p300 Autoacetylation assay, reactions of p300 full length (80 ng) were carried out in HAT assay buffer at 30° C. for 10 minutes with or without the protein (NPM1) followed by addition of 1 μl of 4.7 Ci/mmol [^3H] acetyl CoA (NEN-PerkinElmer) and were further incubated for another 10 min in a 30 μl reaction. GAPDH was used as positive control. The radio-labeled acetylated p300 were processed by fluorography followed by autoradiography.

p300 = p300 (Homo sapiens, UniProt Q09472); assay: HAT assay with recombinant p300; assay type: biochemical; parameters: hexahistidine; made in house; host or cells: baculovirus-infected Sf21 cells
Description: as §2, §3

full length p300 = target: T2, full length p300 (Homo sapiens, UniProt Q09472); assay: p300 autoacetylation assay in vitro (3H-acetyl CoA, fluorography/autoradiography); assay type: biochemical; settings: dose dependent; 3H-acetyl-CoA
T2 construct: hexahistidine; made in house; host or cells: baculovirus-infected Sf21 cells
Description: as §3

[4] = test system: GAPDH localisation in KB cells; assay: GAPDH nuclear translocation in KB cells (immunofluorescence); assay type: cell-based; settings: 10 ng ml−1, 16 h
Description: as §1, with “protocol^31. For whole cell extract preparation RIPA buffer (Tris-HCl 50 mM, pH 7.4 NP-40 1%, Na-deoxycholate 0.25%, NaCl 150 mM, EDTA 1 mM, Phenylmethylsulfonyl fluoride (PMSF), 1 mM Na3VO4, 1 mM NaF and protease inhibitor cocktail) was used.” for “protocol^31.”

T1 sequence (Q92831 whole entry, species assumed): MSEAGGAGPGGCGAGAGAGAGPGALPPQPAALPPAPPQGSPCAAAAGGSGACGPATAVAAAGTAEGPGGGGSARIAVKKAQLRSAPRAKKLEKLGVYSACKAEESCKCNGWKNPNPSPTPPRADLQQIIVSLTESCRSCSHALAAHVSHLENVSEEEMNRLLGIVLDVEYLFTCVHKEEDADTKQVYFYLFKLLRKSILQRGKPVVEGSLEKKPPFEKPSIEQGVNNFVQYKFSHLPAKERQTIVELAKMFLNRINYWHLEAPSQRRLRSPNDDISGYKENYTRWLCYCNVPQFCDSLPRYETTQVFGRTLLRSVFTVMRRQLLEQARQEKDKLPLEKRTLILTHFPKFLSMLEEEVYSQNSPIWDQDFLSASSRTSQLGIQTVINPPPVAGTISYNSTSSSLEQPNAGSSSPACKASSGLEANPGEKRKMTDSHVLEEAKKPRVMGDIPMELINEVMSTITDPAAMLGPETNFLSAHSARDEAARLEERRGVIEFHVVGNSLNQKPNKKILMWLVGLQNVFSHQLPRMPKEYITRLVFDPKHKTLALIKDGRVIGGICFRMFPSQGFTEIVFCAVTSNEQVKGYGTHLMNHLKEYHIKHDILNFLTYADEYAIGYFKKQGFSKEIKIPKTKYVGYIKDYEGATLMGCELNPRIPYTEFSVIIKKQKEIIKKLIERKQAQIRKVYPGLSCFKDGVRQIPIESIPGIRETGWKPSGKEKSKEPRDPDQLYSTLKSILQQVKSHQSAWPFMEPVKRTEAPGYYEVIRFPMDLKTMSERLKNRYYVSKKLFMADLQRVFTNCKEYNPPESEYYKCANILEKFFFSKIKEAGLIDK
p300, sequence (Q09472 whole entry, species assumed): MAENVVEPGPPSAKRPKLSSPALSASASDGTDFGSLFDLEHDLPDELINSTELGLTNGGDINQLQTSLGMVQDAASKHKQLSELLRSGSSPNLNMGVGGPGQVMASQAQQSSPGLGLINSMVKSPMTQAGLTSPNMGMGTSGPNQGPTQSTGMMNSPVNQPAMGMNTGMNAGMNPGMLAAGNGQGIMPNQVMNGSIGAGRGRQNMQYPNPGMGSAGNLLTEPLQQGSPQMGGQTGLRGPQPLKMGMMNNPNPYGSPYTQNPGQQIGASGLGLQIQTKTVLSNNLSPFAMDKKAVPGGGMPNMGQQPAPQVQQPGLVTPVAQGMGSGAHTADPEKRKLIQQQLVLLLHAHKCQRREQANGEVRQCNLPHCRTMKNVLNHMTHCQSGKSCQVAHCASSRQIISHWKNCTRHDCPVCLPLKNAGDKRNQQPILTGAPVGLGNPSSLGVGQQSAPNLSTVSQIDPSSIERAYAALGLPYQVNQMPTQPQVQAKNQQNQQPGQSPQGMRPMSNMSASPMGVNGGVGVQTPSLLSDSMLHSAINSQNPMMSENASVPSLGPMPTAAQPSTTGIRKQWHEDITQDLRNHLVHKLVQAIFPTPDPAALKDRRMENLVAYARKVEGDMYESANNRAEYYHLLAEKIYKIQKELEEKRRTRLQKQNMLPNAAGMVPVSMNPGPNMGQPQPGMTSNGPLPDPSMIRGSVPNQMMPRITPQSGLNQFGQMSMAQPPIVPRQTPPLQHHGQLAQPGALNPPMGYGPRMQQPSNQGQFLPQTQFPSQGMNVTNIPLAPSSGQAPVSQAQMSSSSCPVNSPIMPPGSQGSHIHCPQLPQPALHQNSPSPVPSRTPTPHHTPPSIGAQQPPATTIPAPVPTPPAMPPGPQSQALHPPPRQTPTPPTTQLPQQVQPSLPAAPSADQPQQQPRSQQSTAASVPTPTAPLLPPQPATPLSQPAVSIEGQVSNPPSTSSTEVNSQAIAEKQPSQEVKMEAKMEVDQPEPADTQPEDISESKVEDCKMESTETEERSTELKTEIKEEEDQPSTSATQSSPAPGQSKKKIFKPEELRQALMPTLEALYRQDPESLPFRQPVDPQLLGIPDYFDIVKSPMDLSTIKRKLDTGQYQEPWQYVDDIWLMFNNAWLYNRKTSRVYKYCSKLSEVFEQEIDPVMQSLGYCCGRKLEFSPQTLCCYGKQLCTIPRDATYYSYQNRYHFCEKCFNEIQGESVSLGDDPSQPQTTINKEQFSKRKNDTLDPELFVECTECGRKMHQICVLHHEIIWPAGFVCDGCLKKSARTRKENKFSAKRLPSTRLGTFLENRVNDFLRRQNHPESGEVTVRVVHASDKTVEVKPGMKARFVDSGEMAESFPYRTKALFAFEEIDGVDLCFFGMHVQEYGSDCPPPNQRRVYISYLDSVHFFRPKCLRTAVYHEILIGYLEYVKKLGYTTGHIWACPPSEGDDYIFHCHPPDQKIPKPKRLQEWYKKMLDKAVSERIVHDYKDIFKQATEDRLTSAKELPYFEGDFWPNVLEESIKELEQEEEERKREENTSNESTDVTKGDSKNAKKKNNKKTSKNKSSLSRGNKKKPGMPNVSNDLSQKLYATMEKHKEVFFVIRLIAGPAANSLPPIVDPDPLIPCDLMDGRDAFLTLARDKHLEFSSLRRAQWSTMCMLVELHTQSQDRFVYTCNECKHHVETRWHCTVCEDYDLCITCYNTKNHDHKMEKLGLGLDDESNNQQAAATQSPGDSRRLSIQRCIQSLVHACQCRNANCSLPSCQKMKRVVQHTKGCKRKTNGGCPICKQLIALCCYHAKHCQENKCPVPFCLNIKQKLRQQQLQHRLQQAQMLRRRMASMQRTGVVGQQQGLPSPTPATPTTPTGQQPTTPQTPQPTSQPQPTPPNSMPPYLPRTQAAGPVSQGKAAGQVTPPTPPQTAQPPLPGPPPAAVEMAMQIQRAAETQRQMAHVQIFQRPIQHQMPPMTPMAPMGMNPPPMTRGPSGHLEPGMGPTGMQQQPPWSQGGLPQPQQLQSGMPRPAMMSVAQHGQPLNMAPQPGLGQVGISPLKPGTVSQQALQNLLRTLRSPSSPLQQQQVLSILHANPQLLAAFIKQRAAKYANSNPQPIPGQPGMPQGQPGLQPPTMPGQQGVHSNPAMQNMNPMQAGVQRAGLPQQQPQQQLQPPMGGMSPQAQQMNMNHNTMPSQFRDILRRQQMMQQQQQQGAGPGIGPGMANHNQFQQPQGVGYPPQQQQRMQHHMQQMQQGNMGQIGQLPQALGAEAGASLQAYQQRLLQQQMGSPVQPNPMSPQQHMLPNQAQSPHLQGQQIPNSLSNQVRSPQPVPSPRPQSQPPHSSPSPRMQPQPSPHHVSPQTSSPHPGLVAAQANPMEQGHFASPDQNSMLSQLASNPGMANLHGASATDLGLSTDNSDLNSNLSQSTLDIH
T2 sequence (Q09472 whole entry, species assumed): as above

Molecule: CC(=N)NCc1cccc(CN)c1 [1400 W, N-(3-(Aminomethyl)benzyl)acetamidine]
effect on IFNγ-enhanced GAPDH and NPM1 acetylation ([1]; 100 μM): abolished or reduced

solubility in water (Solubility test in water): Insoluble
Molecule: COc1cc(C=Cc2cc(C=Cc3ccc(O)c(OC)c3)n(-c3ccc(C(=O)O)cc3)n2)ccc1O [CTK7, Hydrazinobenzoylcurcumin]

Molecule: N[C@@H](CCC(=O)N[C@@H](CSN=O)C(=O)NCC(=O)O)C(=O)O [GSNO, S-nitroso-glutathione]
level of H3K14 acetylation [2]: enhanced | expression of GAPDH [3]: enhanced in a concentration dependent manner | expression of NPM1 [3]: enhanced in a concentration dependent manner | acetylation of GAPDH ([1]; 200 μM GSNO, 24 h): gets acetylated | acetylation of NPM1 ([1]; 200 μM GSNO, 24 h): dramatically enhanced

Molecule: CC(C)(COP(=O)(O)OP(=O)(O)OC[C@H]1O[C@@H](n2cnc3c(N)ncnc32)[C@H](O)[C@@H]1OP(=O)(O)O)[C@@H](O)C(=O)NCCC(=O)NCCSC(=O)[C@@H](N)CCCCN [Lysyl-CoA, lysyl-CoA]
proliferation of human melanocytes (human melanocytes): inhibited | senescence of human melanocytes (human melanocytes; with expression SA-β-gal): induced senescence-like growth arrest

inhibition of PCAF HAT activity (PCAF): inhibitory effect | inhibition of p300 HAT activity (p300): inhibitory effect
Molecule: COc1cc(/C=C/C(=O)CC(=O)/C=C/c2ccc(O)c(OC)c2)ccc1O [curcumin, reference compound]

activation of autoacetylation of p300 (full length p300): activate
Molecule: NPM1: Nucleophosmin, histone chaperone, multifunctional nucleolar protein

B1: IFNγ: interferon γ, a proinflamatory cytokine that activates iNOS to produce NO (protein, UniProt P01579 24-161, looked up)
Interferon gamma: QDPYVKEAENLKKYFNAGHSDVADNGTLFLGILKNWKEESDRKIMQSQIVSFYFKLFKNFKDDQSIQKSVETIKEDMNVKFFNSNKKKRDDFEKLTNYSVTDLNVQRKAIHELIQVMAELSPAAKTGKRKRSQMLFRG
GAPDH and NPM1 acetylation ([1]; IFNγ 10 ng ml−1, 16 h, NO-dependent): enhanced | translocation of GAPDH to nucleus [4]: induce the translocation
